Data published in patent US20090285893A1, “TREATMENT OF HEART FAILURE IN WOMEN” (The Procter & Gamble Company, priority 2008, published 2009).

Tests used:
Type in all cases: in vivo, human
[1] = system: post-menopausal women with heart failure; experiment: six minute walking test (6MWT), exercise tolerance; conditions: for 6MWT distance walked: 300 mcg/day transdermal patch
Description: (§1) Thirty-two (32) patients enrolled in the trial. […] Testosterone was administered to the patients as Intrinsa, which is available in Europe.
(§2) The clinical trial design involved: (A) evaluation of inclusion/exclusion criteria and study agreement; (B) visit (blood pressure, heart rate and NYHA classification); (C) six minute walking test, endothelial function, ergospirometry (when possible), muscle strength (isometric and isokinetic) and blood samples; and then (D) randomization to testosterone or placebo. The following follow-ups were conducted: six weeks (B); twelve weeks (B+C); 18 weeks (B); and 24 weeks (B+C).
In the 6MWT, each patient started by standing at a known beginning location point. Each patient then walked as much as possible within a 6-minute timeframe. At the end of the 6-minute timeframe, the ending location of each patient was identified. The distance each patient walked was calculated by measuring (in meters) the distance between the beginning and end points for each patient.

[2] = system: post-menopausal women with heart failure; experiment: maximal oxygen consumption (MVO2) by ergospirometry
Description: Thirty-two (32) patients enrolled in the trial.
The following follow-ups were conducted: six weeks (B); twelve weeks (B+C); 18 weeks (B); and 24 weeks (B+C).
Maximal oxygen consumption (“MVO2;” also “VO2 max”) is the maximum volume of oxygen that the body can consume during intense, whole-body exercise, while breathing air at sea level. This volume is expressed as a rate, which is in ml/kg/min. As oxygen consumption is linearly related to energy expenditure, the measurement of oxygen consumption is an indirect measurement of an individual's maximal capacity to do work aerobically.

[3] = system: post-menopausal women with heart failure; experiment: muscle isometric strength, maximal voluntary contraction (MVC)
Description: as §1, §2
Isometric strength was the highest force developed by patients in three, 5-second maximal voluntary contractions (“MVC”) separated by 1 minute of rest. The knee angle was fixed at 80° (full extension considered 0°). Results are reported at Tables 9-10 and FIGS. 8-10.

[4] = system: post-menopausal women with heart failure; experiment: muscle isokinetic strength, peak torque
Description: as §1, §2
Isokinetic strength was assessed by evaluating the highest peak torque achieved in a five maximal repetition test of concentric knee extension/flexion performed at 90 degree/sec. The range of motion was 50°. Results are reported at Tables 11-12 and FIGS. 11-13.

[5] = system: post-menopausal women with heart failure; experiment: NYHA classification improvement
Description: as §1, §2
NYHA Classification was determined for each individual at three months and at six months of treatment.

[6] = system: post-menopausal women with heart failure; experiment: high-density lipoprotein (HDL) measurement
Description: as §1, §2
High-density lipoprotein (“HDL”) was measured.

[7] = system: post-menopausal women with heart failure; experiment: drop-outs and adverse events during the clinical study; conditions: testosterone group of 20 patients
Description: as §1
During the clinical study, two patients dropped out of the testosterone group, and one patient dropped out of the placebo group. […] The patient who dropped out of the placebo group was a no-show at the 6-week meeting and was reported to have stopped the treatment. Of the testosterone group, six patients referred mild skin irritation at the patch site and continued therapy. Of the placebo group, two patients referred mild skin irritation at the patch site and continued therapy. […] These two patients continued the testosterone treatment. Two patients in the placebo group had worsening heart failure that required hospital admission (one patient had one episode of worsening heart failure; the other patient had two episodes of worsening heart failure). These two patients continued with the patch.

C[C@]12CC[C@H]3[C@@H](CCC4=CC(=O)CC[C@@]43C)[C@@H]1CC[C@@H]2O [Testosterone, testosterone]
6MWT percent change from baseline ([1]; 3 months): 35.7% change
6MWT change in distance walked ([1]; 3 months vs baseline): 93 Δ m
6MWT distance walked ([1]; 3 months): 353 m
6MWT percent change from baseline ([1]; 6 months): 39.2% change
6MWT change in distance walked ([1]; 6 months vs baseline): 102 Δ m
6MWT distance walked ([1]; 6 months): 362 m
6MWT distance walked ([1]; baseline, testosterone group): 260 m
MVO2 percent change from baseline ([2]; 3 months): 21% change
MVO2 percent change from baseline ([2]; 6 months): 28% change
MVO2 percent change from baseline ([2]; 6 months, listed as testosterone): over 25 % change
maximal oxygen consumption peak (MVO2) ([2]; baseline, testosterone group): 10.54 mL/min/kg
MVC percent change from baseline ([3]; 3 months): 37.8% change
isometric strength, maximal voluntary contraction (MVC) ([3]; 3 months): 89.4 N
MVC percent change from baseline ([3]; 6 months): 47.6% change
isometric strength, maximal voluntary contraction (MVC) ([3]; 6 months): 95.7 N
isometric strength, maximal voluntary contraction (MVC) ([3]; baseline, testosterone group): 64.85 N
isokinetic strength, peak torque ([4]; 3 months): 58.85 N/m
peak torque percent change from baseline ([4]; 3 months): 42.32% change
isokinetic strength, peak torque ([4]; 6 months): 63.82 N/m
peak torque percent change from baseline ([4]; 6 months): 54.34% change
isokinetic strength, peak torque ([4]; baseline, testosterone group): 41.35 N/m
Percent of patients with improvement of NYHA Class and/or improvement of >15% 6 MWT (% Response) ([5]; 6 months): 80%
Percent change in NYHA Class of patients: NYHA 0 ([5]; during 6 months of treatment): 50%
Percent change in NYHA Class of patients: NYHA + 1 ([5]; during 6 months of treatment): 11%
Percent change in NYHA Class of patients: NYHA − 1 ([5]; during 6 months of treatment): 38.8%
HDL Percent Changes ([6]; 3 months): 19%
HDL level ([6]; 3 months): 43.24 mg/dL
HDL Percent Changes ([6]; 6 months): 25%
HDL level ([6]; 6 months): 43.15 mg/dL
HDL level ([6]; baseline, testosterone group): 36.9 mg/dL
patients who dropped out [7]: two
patients with generalized prurigo (without lesions on the skin), discontinued treatment after 3 weeks [7]: one
patients with mild skin irritation at the patch site, continued therapy [7]: six
patients with one episode of worsening of heart failure requiring hospital admission ([7]; during the follow-up): Two
